Assay results from BindingDB's records for doi:10.1016/s0006-2952(97)00631-x (Roche Bioscience, 1998).
Where “and” joins values, the source holds several entries; their conditions need not be identical. Equal entries are not always repeated.

How the values were obtained:
[1] = target: T1, Alpha-2C adrenergic receptor (Homo sapiens, UniProt P18825)
T1 sequence (P18825 whole entry): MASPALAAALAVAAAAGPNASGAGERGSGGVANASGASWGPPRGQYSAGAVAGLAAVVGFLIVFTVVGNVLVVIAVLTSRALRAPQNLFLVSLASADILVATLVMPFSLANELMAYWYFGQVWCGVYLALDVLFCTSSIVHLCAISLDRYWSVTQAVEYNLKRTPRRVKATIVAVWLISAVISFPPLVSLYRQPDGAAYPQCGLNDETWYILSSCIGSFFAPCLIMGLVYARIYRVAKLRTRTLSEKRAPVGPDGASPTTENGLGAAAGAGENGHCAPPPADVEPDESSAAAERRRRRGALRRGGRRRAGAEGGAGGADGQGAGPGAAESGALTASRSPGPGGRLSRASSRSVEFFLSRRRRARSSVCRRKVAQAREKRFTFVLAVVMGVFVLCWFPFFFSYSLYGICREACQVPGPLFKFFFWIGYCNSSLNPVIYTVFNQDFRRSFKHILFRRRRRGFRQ

[2] = target: T2, Alpha-2A adrenergic receptor (Mus musculus, UniProt Q1HL33)
T2 sequence (Q1HL33 whole entry): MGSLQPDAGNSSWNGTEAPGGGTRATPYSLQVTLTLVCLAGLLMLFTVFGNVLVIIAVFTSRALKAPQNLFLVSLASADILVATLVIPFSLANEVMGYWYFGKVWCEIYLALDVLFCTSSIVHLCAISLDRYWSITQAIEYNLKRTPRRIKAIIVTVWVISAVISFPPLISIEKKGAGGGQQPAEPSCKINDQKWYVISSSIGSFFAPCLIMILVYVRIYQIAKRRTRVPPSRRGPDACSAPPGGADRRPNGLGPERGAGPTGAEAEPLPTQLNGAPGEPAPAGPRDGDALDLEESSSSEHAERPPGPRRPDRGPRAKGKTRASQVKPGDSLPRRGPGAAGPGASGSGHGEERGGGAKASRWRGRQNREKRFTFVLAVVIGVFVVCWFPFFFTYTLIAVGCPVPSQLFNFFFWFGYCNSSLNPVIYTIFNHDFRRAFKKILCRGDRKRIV

[3] = target: T3, Alpha-2A adrenergic receptor (Homo sapiens, UniProt P08913)
T3 sequence (P08913 whole entry): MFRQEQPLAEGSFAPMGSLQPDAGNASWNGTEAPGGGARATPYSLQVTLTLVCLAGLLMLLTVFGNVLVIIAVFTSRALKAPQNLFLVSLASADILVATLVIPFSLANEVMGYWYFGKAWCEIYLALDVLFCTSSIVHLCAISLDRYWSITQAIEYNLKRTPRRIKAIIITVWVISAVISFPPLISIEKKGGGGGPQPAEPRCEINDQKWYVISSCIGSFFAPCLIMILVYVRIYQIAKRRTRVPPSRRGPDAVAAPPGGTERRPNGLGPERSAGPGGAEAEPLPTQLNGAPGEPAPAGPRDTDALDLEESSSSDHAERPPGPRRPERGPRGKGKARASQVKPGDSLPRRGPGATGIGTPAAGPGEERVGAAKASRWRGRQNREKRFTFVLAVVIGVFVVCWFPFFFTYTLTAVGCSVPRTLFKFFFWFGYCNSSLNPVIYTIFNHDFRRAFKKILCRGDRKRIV

Row | Structure (SMILES) | Ki [1] | Ki [2] | Ki [3]
1 | c1cc2c(c(NC3=NCCN3)c1)CCCC2 | 275 nM | 15.5 nM | 31.6 nM
2 | Cc1cccc([C@@H](C)c2cnc[nH]2)c1C | 95.5 nM | 3.39 nM | 
3 | Clc1cccc(Cl)c1N=C1NCCN1 [2-(2,6-dichloroanilino)-2-imidazoline] |  | 40.7 nM | 
4 | Cc1cccc(C)c1N=C1NCCCS1 [(5,6-Dihydro-4H-[1,3]thiazin-2-yl)-(2,6-dimethyl-phenyl)-amine] | > 10000 nM | 2400 nM | 5750 nM
5 | Oc1ccc2c(c1O)CCC[C@@H]2C1=NCCN1 [A-54741] | 776 nM | 9.77 nM | 
6 | C=CCN1CCc2nc(N)sc2CC1 [B-HT 920] | 955 nM |  | 398 nM
7 | C=CCN(C1=NCCN1)c1c(Cl)cccc1Cl [CAS_33178-86-8] | > 10000 nM |  | 6030 nM
8 | Fc1cccc(Cl)c1C1CC2=NCCN2C1 (centres undefined) [CAS_67249-51-8] | 282 nM |  | 7.94 nM
9 | C[C@@H](Oc1c(Cl)cccc1Cl)C1=NCCN1 [CAS_81447-78-1] | 174 nM |  | 
10 | CC(C)NCC(O)c1ccc(O)c(O)c1 (stereo not drawn) [Isoproterenol,(+)] |  | > 10000 nM | 
11 | CN1CCC2(CCN3CCc4c(oc5ccccc45)C3C2)N(C)C1=O (centres undefined) [MK-912] | 0.07 nM |  | 0.85 nM
12 | N=C(N)NC(=O)Cc1c(Cl)cccc1Cl [NSC_3519] |  | 20.4 nM | 
13 | CCn1ccnc1CC1COc2ccccc2O1 (centres undefined) [NSC_133621] | 151 nM |  | 316 nM
14 | c1ccc2c(CC3=NCCN3)cccc2c1 [Naphazoline] | 407 nM | 11.5 nM and 17 nM | 20.9 nM
15 | NCC(O)c1ccc(O)c(O)c1 (stereo not drawn) [Noradrenaline,(+)] | 1350 nM | 1410 nM | 
16 | COC1(C2=NCCN2)COc2ccccc2O1 (centres undefined) [RX821002] | 0.79 nM | 0.62 nM | 0.36 nM
17 | Cc1cc(C(C)(C)C)cc(C)c1CC1=NCCN1 [SMR000058526] | 129 nM | 25.7 nM and 24 nM | 15.1 nM
18 | Cc1cc(C(C)(C)C)c(O)c(C)c1CC1=NCCN1 [SMR000059324] |  | 15.5 nM and 25.7 nM | 
19 | CCc1cccc(CC)c1NC1=NCCN1 [ST 91] | 617 nM | 537 nM | 575 nM
20 | CC(N)C(O)c1ccc(O)c(O)c1 (stereo not drawn) [alpha-Methyl-(+/-)norepinephrine,(+/-)] | 2880 nM |  | 3630 nM
21 | c1ccc2ccccc2c1 [naphtaline] | 3.31 nM | 7.76 nM and 9.33 nM | 4.57 nM
22 | Nc1cc(Cl)c(N=C2NCCN2)c(Cl)c1 [p-AMINOCLONIDINE] | 21.4 nM |  | 7.94 nM
23 | C1COC(NC(C2CC2)C2CC2)=N1 [rilmenidine] | 4680 nM | 724 nM | 1580 nM
